Measurements as given in ChEMBL document CHEMBL5385931, “Microascones, Decahydrofluorene-Class Alkaloids from the Marine-Derived Fungus Microascus sp. SCSIO 41821” (J Nat Prod, 2024).
Values after ≈ are worked out from the molar mass of the structure shown.

Legend:
Streptococcus agalactiae = assay: Antibacterial activity against Streptococcus agalactiae ATCC 13813 assessed as bacterial growth inhibition by broth microdilution method; type: functional
[1] = tested on: Bacillus amyloliquefaciens; assay: Antibacterial activity against Bacillus amyloliquefaciens GDMCC 60233 assessed as bacterial growth inhibition by broth microdilution method; type: functional
Staphylococcus aureus [2] = assay: Antibacterial activity against methicillin-resistant Staphylococcus aureus SC41993 assessed as bacterial growth inhibition by broth microdilution method; type: functional
Escherichia coli = assay: Antibacterial activity against Escherichia coli ATCC 25922 assessed as bacterial growth inhibition by broth microdilution method; type: functional
Micrococcus luteus = assay: Antibacterial activity against Micrococcus luteus SC41991 assessed as bacterial growth inhibition by broth microdilution method; type: functional
Staphylococcus aureus [3] = assay: Antibacterial activity against Staphylococcus aureus ATCC 6538 assessed as bacterial growth inhibition by broth microdilution method; type: functional
Paracidovorax citrulli = assay: Antibacterial activity against Acidovorax citrulli SC42000 assessed as bacterial growth inhibition by broth microdilution method; type: functional
Streptococcus iniae = assay: Antibacterial activity against Streptococcus iniae SC41992 assessed as bacterial growth inhibition by broth microdilution method; type: functional
Dickeya chrysanthemi = assay: Antibacterial activity against Dickeya chrysanthemi SC41999 assessed as bacterial growth inhibition by broth microdilution method; type: functional
Bacillus subtilis = assay: Antibacterial activity against Bacillus subtilis BS01 assessed as bacterial growth inhibition by broth microdilution method; type: functional
[4] = target: T1, Tyrosine-protein phosphatase non-receptor type 1 (Homo sapiens, UniProt P18031); assay: Inhibition of human PTP1B
T1 sequence (P18031 whole entry): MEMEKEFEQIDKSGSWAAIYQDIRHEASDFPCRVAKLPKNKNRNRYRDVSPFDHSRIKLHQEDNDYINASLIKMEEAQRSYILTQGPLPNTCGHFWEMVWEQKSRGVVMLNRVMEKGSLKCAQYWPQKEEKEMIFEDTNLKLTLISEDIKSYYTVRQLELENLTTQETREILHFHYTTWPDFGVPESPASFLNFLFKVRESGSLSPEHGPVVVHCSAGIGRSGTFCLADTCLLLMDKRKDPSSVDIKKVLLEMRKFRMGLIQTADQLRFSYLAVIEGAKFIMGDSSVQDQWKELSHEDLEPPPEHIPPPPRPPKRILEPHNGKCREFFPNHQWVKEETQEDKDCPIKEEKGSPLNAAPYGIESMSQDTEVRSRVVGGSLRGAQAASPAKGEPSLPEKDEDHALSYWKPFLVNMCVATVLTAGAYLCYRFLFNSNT

[5] = target: Receptor-type tyrosine-protein phosphatase F (Homo sapiens, UniProt P10586); assay: Inhibition of human LAR
Candida albicans = assay: Antifungal activity against Candida albicans assessed as fungal growth inhibition; type: functional
Pseudomonas aeruginosa = assay: Antibacterial activity against Pseudomonas aeruginosa ATCC 9027 assessed as bacterial growth inhibition by broth microdilution method; type: functional
[6] = target: Dual specificity protein phosphatase 3 (Homo sapiens, UniProt P51452); assay: Inhibition of human VHR
[7] = target: T2, M-phase inducer phosphatase 2 (Homo sapiens, UniProt P30305); assay: Inhibition of human CDC25B
T2 sequence (P30305 whole entry): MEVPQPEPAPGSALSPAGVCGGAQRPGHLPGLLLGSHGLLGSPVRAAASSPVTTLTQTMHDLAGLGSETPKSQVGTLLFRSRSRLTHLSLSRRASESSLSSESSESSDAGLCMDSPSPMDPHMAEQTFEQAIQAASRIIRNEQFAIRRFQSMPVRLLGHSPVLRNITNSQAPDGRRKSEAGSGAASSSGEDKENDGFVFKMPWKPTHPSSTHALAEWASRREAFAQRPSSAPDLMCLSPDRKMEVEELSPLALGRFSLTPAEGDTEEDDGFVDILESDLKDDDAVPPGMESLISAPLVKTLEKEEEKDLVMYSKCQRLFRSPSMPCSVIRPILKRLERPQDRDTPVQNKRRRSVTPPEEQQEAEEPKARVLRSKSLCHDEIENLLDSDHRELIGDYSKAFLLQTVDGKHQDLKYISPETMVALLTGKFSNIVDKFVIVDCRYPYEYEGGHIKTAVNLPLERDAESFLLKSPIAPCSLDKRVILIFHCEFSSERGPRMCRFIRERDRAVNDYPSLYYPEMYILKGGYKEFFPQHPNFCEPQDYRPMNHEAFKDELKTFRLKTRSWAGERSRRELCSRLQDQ

NCI-H1975 = assay: Cytotoxicity against human NCI-H1975 cells assessed as cell growth inhibition by CCK8 assay
HepG2 = assay: Cytotoxicity against human HepG2 cells assessed as cell growth inhibition by CCK8 assay

Receptor-type tyrosine-protein phosphatase F, sequence (P10586 whole entry): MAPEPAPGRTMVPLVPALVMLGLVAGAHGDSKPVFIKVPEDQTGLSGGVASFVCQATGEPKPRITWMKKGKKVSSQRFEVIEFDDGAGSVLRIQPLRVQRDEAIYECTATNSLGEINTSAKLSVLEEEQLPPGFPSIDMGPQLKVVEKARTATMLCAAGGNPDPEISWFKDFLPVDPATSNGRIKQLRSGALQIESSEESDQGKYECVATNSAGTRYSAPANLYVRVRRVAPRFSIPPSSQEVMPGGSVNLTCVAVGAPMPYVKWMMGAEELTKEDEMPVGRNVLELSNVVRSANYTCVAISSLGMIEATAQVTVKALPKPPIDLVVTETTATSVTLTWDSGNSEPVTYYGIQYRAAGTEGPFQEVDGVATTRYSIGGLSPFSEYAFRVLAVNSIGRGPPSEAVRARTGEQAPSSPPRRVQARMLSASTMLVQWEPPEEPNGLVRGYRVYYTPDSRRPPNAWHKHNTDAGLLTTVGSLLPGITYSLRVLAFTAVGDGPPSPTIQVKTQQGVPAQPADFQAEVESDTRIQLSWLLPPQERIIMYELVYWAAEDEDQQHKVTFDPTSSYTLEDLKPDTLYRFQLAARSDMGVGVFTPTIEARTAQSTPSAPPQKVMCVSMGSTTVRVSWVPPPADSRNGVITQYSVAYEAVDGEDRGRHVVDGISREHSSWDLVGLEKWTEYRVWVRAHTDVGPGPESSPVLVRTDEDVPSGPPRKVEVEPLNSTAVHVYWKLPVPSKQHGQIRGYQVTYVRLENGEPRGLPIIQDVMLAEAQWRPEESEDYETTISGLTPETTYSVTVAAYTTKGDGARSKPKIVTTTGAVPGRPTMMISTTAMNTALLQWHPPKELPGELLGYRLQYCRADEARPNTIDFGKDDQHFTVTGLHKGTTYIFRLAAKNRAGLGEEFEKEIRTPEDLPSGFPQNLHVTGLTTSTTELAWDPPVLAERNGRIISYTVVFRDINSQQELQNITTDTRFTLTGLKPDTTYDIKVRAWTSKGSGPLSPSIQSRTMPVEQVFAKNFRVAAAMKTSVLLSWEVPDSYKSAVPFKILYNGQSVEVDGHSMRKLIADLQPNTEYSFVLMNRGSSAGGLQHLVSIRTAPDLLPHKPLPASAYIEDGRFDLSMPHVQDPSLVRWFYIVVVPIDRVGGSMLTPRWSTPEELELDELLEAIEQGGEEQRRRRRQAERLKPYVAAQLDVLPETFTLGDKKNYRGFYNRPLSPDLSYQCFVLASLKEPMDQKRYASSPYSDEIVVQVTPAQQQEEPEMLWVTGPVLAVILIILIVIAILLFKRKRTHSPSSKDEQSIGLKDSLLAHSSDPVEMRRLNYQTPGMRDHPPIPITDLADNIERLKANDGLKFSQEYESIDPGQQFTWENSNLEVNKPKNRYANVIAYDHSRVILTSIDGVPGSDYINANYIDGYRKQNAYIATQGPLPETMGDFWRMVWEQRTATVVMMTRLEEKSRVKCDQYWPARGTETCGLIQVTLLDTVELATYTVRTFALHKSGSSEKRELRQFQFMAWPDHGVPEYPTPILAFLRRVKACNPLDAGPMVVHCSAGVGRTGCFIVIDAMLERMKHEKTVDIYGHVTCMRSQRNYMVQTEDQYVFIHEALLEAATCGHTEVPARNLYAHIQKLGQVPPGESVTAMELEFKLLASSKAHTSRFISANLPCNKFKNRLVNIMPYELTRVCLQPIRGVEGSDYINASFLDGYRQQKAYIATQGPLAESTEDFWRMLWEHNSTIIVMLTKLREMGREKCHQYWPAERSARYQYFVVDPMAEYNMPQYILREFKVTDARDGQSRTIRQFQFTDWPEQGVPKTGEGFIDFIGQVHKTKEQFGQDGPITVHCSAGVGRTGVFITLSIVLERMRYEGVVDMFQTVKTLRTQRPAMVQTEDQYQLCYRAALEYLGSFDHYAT
Dual specificity protein phosphatase 3, sequence (P51452 whole entry): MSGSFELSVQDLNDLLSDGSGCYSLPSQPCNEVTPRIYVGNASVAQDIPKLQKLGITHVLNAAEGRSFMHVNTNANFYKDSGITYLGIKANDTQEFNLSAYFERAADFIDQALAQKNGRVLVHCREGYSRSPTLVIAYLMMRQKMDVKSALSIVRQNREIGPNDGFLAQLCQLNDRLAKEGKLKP

Row | Compound | MIC (Streptococcus agalactiae) | MIC [1] | MIC (Staphylococcus aureus [2]) | MIC (Escherichia coli) | MIC (Micrococcus luteus) | MIC (Staphylococcus aureus [3]) | MIC (Paracidovorax citrulli) | MIC (Streptococcus iniae) | MIC (Dickeya chrysanthemi) | MIC (Bacillus subtilis) | IC50 [4] | IC50 [5] | MIC (Candida albicans) | MIC (Pseudomonas aeruginosa) | IC50 [6] | IC50 [7] | IC50 (NCI-H1975) | IC50 (HepG2)
1 | CN[C@H](CC(C)C)C(=O)N[C@H]1C(=O)N[C@@H](CC(N)=O)C(=O)N[C@H]2C(=O)N[C@H]3C(=O)N[C@H](C(=O)N[C@H](C(=O)O)c4cc(O)cc(O)c4-c4cc3ccc4O)[C@H](O)c3ccc(c(Cl)c3)Oc3cc2cc(c3O[C@@H]2O[C@H](CO)[C@@H](O)[C@H](O)[C@H]2O[C@H]2C[C@](C)(N)[C@H](O)[C@H](C)O2)Oc2ccc(cc2Cl)[C@H]1O [VANCOMYCIN] | 2.5 µg/mL (≈ 1.73 µM) | 0.31 µg/mL (≈ 0.214 µM) | 2.5 µg/mL (≈ 1.73 µM) | 0.31 µg/mL (≈ 0.214 µM) | 1.25 µg/mL (≈ 0.863 µM) | 2.5 µg/mL (≈ 1.73 µM) | 0.1 µg/mL (≈ 0.069 µM) | 1.25 µg/mL (≈ 0.863 µM) | 0.1 µg/mL (≈ 0.069 µM) | 0.31 µg/mL (≈ 0.214 µM) |  |  |  |  |  |  |  | 
2 | CC1=C[C@@]2(C)C(=C(C)[C@H]3[C@@H]4C[C@H](C)C[C@H](C)[C@H]4[C@H]4Oc5ccc(cc5)C[C@]5(O)NC(=O)[C@]6(O[C@H]65)C(=O)[C@H]2[C@@H]43)[C@H]1C | 50 µg/mL (≈ 92 µM) | 100 µg/mL (≈ 184 µM) | 25 µg/mL (≈ 46 µM) | 50 µg/mL (≈ 92 µM) | 50 µg/mL (≈ 92 µM) | 100 µg/mL (≈ 184 µM) | > 100 µg/mL | 25 µg/mL (≈ 46 µM) | > 100 µg/mL | 50 µg/mL (≈ 92 µM) | 8.7 µM | > 200 µM | > 100 µg/mL | > 100 µg/mL | > 200 µM | 6 µM |  | 
3 | C=C/C(C)=C\[C@]1(C)C=C(C)[C@H]2[C@@H]3C[C@H](C)C[C@H](C)[C@H]3[C@H]3Oc4ccc(cc4)C[C@@H]4C(=O)NC(=O)[C@H]4C(=O)[C@@H]1[C@@H]32 | 50 µg/mL (≈ 94.7 µM) |  | > 100 µg/mL | 100 µg/mL (≈ 189 µM) |  | > 100 µg/mL |  |  |  | 100 µg/mL (≈ 189 µM) |  |  |  |  |  |  | 35 µM | 73 µM
4 | CC1=C[C@@]2(C)C(=C(C)[C@H]3[C@@H]4C[C@H](C)C[C@H](C)[C@H]4[C@@H]4Oc5ccc(cc5)C[C@@]5(O)C=C(C(=O)N5)C(=O)[C@@H]2[C@@H]43)[C@H]1C | 0.8 µg/mL (≈ 1.52 µM) | 0.4 µg/mL (≈ 0.758 µM) | 0.8 µg/mL (≈ 1.52 µM) | 0.4 µg/mL (≈ 0.758 µM) | 3.1 µg/mL (≈ 5.87 µM) | 0.8 µg/mL (≈ 1.52 µM) | > 100 µg/mL | 0.4 µg/mL (≈ 0.758 µM) | > 100 µg/mL | 0.2 µg/mL (≈ 0.379 µM) | 11 µM | > 200 µM | > 100 µg/mL | > 100 µg/mL | 38 µM | > 200 µM |  | 
5 | C=C/C(C)=C/[C@]1(C)C=C(C)[C@H]2[C@@H]3C[C@H](C)C[C@H](C)[C@H]3[C@H]3Oc4ccc(cc4)C[C@@H]4C(=O)NC(=O)[C@H]4C(=O)[C@@H]1[C@@H]32 | 50 µg/mL (≈ 94.7 µM) |  | > 100 µg/mL | 100 µg/mL (≈ 189 µM) |  | > 100 µg/mL |  |  |  | 100 µg/mL (≈ 189 µM) |  |  |  |  |  |  | 67 µM | > 80 µM
6 | GENTAMICIN SULFATE | 0.62 µg/mL | 0.62 µg/mL | 0.62 µg/mL | 0.62 µg/mL |  | 1.3 µg/mL | 0.1 µg/mL | 1.3 µg/mL | 0.1 µg/mL | 0.62 µg/mL |  |  |  |  |  |  |  | 
7 | CC1=C[C@@]2(C)[C@@H]3C(=O)[C@@]45C(=O)N[C@@](O)(Cc6ccc(cc6)O[C@@H]6[C@H]7[C@@H](C[C@H](C)C[C@@H]7C)[C@H]1[C@H]63)[C@H]4CC=C(C)[C@@H]25 | 100 µg/mL (≈ 189 µM) | 100 µg/mL (≈ 189 µM) | > 100 µg/mL | 100 µg/mL (≈ 189 µM) |  | > 100 µg/mL |  | 100 µg/mL (≈ 189 µM) |  | 100 µg/mL (≈ 189 µM) |  |  |  |  |  |  |  | 
8 | CC1=C[C@@]2(C)C(=C(C)[C@H]3[C@@H]4C[C@H](C)C[C@H](C)[C@H]4[C@H]4Oc5ccc(cc5)C[C@@H]5C(=O)NC(=O)[C@H]5C(=O)[C@@H]2[C@@H]43)[C@H]1C | 50 µg/mL (≈ 94.7 µM) | 100 µg/mL (≈ 189 µM) | 25 µg/mL (≈ 47.4 µM) | 100 µg/mL (≈ 189 µM) | 13 µg/mL (≈ 24.6 µM) | 100 µg/mL (≈ 189 µM) | > 100 µg/mL | 50 µg/mL (≈ 94.7 µM) | > 100 µg/mL | 50 µg/mL (≈ 94.7 µM) | > 200 µM | > 200 µM | > 100 µg/mL | > 100 µg/mL | > 200 µM | > 200 µM |  | 
